From PubChem BioAssay (NCI)
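Grown in 96-well plates, cells were treated for 48 hours with each compound at five concentrations. Insufficient inhibition: endpoint recorded as highest concentration tested. GI50 marks 50% less growth. The concentration for full growth arrest is given as TGI.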

Columns and labels:
Assay in all cases: NCI-60 cell line screen, 48 h
786-0 renal = tested on: 786-0 renal
A498 renal = tested on: A498 renal
A549 NSCLC = tested on: A549 NSCLC
ACHN renal = tested on: ACHN renal
BT-549 breast = tested on: BT-549 breast
CAKI-1 renal = tested on: CAKI-1 renal
CCRF-CEM leukemia = tested on: CCRF-CEM leukemia
COLO 205 colon = tested on: COLO 205 colon
DU-145 prostate = tested on: DU-145 prostate
EKVX NSCLC = tested on: EKVX NSCLC
HCC-2998 colon = tested on: HCC-2998 colon
HCT-116 colon = tested on: HCT-116 colon
HCT-15 colon = tested on: HCT-15 colon
HL-60(TB) leukemia = tested on: HL-60(TB) leukemia
HOP-62 NSCLC = tested on: HOP-62 NSCLC
HOP-92 NSCLC = tested on: HOP-92 NSCLC
HS 578T breast = tested on: HS 578T breast
HT29 colon = tested on: HT29 colon
IGROV1 ovarian = tested on: IGROV1 ovarian
K-562 leukemia = tested on: K-562 leukemia
KM12 colon = tested on: KM12 colon
LOX IMVI melanoma = tested on: LOX IMVI melanoma
M14 melanoma = tested on: M14 melanoma
MALME-3M melanoma = tested on: MALME-3M melanoma
MCF7 breast = tested on: MCF7 breast
MDA-MB-231 breast = tested on: MDA-MB-231 breast
MDA-MB-435 = tested on: MDA-MB-435
MOLT-4 leukemia = tested on: MOLT-4 leukemia
NCI-H226 lung = tested on: NCI-H226 lung
NCI-H23 lung = tested on: NCI-H23 lung
NCI-H460 lung = tested on: NCI-H460 lung
NCI-H522 lung = tested on: NCI-H522 lung
NCI/ADR-RES ovarian = tested on: NCI/ADR-RES ovarian
OVCAR-3 ovarian = tested on: OVCAR-3 ovarian
OVCAR-4 ovarian = tested on: OVCAR-4 ovarian
OVCAR-5 ovarian = tested on: OVCAR-5 ovarian
OVCAR-8 ovarian = tested on: OVCAR-8 ovarian
PC-3 prostate = tested on: PC-3 prostate
RPMI-8226 leukemia = tested on: RPMI-8226 leukemia
RXF 393 renal = tested on: RXF 393 renal
SF-268 CNS = tested on: SF-268 CNS
SF-295 CNS = tested on: SF-295 CNS
SF-539 CNS = tested on: SF-539 CNS
SK-MEL-2 melanoma = tested on: SK-MEL-2 melanoma
SK-MEL-28 melanoma = tested on: SK-MEL-28 melanoma
SK-MEL-5 melanoma = tested on: SK-MEL-5 melanoma
SK-OV-3 ovarian = tested on: SK-OV-3 ovarian
SN12C renal = tested on: SN12C renal
SNB-19 CNS = tested on: SNB-19 CNS
SNB-75 CNS = tested on: SNB-75 CNS
SR leukemia = tested on: SR leukemia
SW-620 colon = tested on: SW-620 colon
T-47D breast = tested on: T-47D breast
TK-10 renal = tested on: TK-10 renal
U251 CNS = tested on: U251 CNS
UACC-257 melanoma = tested on: UACC-257 melanoma
UACC-62 melanoma = tested on: UACC-62 melanoma
UO-31 renal = tested on: UO-31 renal

For `O[N+]1=CC=CCC1=S.On1ccccc1=S.[Zn]`, the GI50 (786-0 renal) was 931 nM, the TGI (786-0 renal) was 2290 nM and the GI50 (A498 renal) was 1510 nM. It also gave a TGI (A498 renal) of 3060 nM, a GI50 (A549 NSCLC) of 811 nM and a TGI (A549 NSCLC) of 2330 nM. It also gave a GI50 (ACHN renal) of 967 nM, a TGI (ACHN renal) of 2310 nM and a GI50 (BT-549 breast) of 1520 nM. It also gave a TGI (BT-549 breast) of 3150 nM, a GI50 (CAKI-1 renal) of 1530 nM and a TGI (CAKI-1 renal) of 3130 nM. It also gave a GI50 (CCRF-CEM leukemia) of 437 nM, a TGI (CCRF-CEM leukemia) of 2750 nM and a GI50 (COLO 205 colon) of 375 nM. For the same compound, the TGI (COLO 205 colon) was 951 nM, the GI50 (DU-145 prostate) was 732 nM and the TGI (DU-145 prostate) was 1860 nM. The GI50 (EKVX NSCLC) was 1360 nM, the TGI (EKVX NSCLC) was 3000 nM and the GI50 (HCC-2998 colon) was 896 nM. It also gave a TGI (HCC-2998 colon) of 2370 nM, a GI50 (HCT-116 colon) of 274 nM and a TGI (HCT-116 colon) of 690 nM. It also gave a GI50 (HCT-15 colon) of 1030 nM, a TGI (HCT-15 colon) of 3020 nM and a GI50 (HL-60(TB) leukemia) of 2580 nM. For the same compound, the TGI (HL-60(TB) leukemia) was 6500 nM, the GI50 (HOP-62 NSCLC) was 1210 nM and the TGI (HOP-62 NSCLC) was 2720 nM. For the same compound, the GI50 (HOP-92 NSCLC) was 1470 nM, the TGI (HOP-92 NSCLC) was 3240 nM and the GI50 (HS 578T breast) was 2150 nM. It also gave a TGI (HS 578T breast) of over 30700 nM, a GI50 (HT29 colon) of 300 nM and a TGI (HT29 colon) of 942 nM. For the same compound, the GI50 (IGROV1 ovarian) was 862 nM, the TGI (IGROV1 ovarian) was 2720 nM and the GI50 (K-562 leukemia) was 661 nM. For the same compound, the TGI (K-562 leukemia) was 6980 nM, the GI50 (KM12 colon) was 1280 nM and the TGI (KM12 colon) was 2600 nM. It also gave a GI50 (LOX IMVI melanoma) of 429 nM, a TGI (LOX IMVI melanoma) of 912 nM and a GI50 (M14 melanoma) of 460 nM. The TGI (M14 melanoma) was 1310 nM, the GI50 (MALME-3M melanoma) was 819 nM and the TGI (MALME-3M melanoma) was 2710 nM. The GI50 (MCF7 breast) was 532 nM, the TGI (MCF7 breast) was 2100 nM and the GI50 (MDA-MB-231 breast) was 759 nM. For the same compound, the TGI (MDA-MB-231 breast) was 2220 nM, the GI50 (MDA-MB-435) was 753 nM and the TGI (MDA-MB-435) was 2270 nM. For the same compound, the GI50 (MOLT-4 leukemia) was 614 nM, the TGI (MOLT-4 leukemia) was 6760 nM and the GI50 (NCI-H226 lung) was 1020 nM. For the same compound, the TGI (NCI-H226 lung) was 3040 nM, the GI50 (NCI-H23 lung) was 919 nM and the TGI (NCI-H23 lung) was 2810 nM. It also gave a GI50 (NCI-H460 lung) of 935 nM, a TGI (NCI-H460 lung) of 2870 nM and a GI50 (NCI-H522 lung) of 373 nM. The TGI (NCI-H522 lung) was 985 nM, the GI50 (NCI/ADR-RES ovarian) was 699 nM and the TGI (NCI/ADR-RES ovarian) was 2390 nM. The GI50 (OVCAR-3 ovarian) was 579 nM, the TGI (OVCAR-3 ovarian) was 1370 nM and the GI50 (OVCAR-4 ovarian) was 530 nM. The TGI (OVCAR-4 ovarian) was 1630 nM, the GI50 (OVCAR-5 ovarian) was 1450 nM and the TGI (OVCAR-5 ovarian) was 3040 nM. The GI50 (OVCAR-8 ovarian) was 399 nM, the TGI (OVCAR-8 ovarian) was 1830 nM and the GI50 (PC-3 prostate) was 834 nM. For the same compound, the TGI (PC-3 prostate) was 3130 nM, the GI50 (RPMI-8226 leukemia) was 1390 nM and the TGI (RPMI-8226 leukemia) was 4050 nM. For the same compound, the GI50 (RXF 393 renal) was 587 nM, the TGI (RXF 393 renal) was 1360 nM and the GI50 (SF-268 CNS) was 880 nM. It also gave a TGI (SF-268 CNS) of 2510 nM, a GI50 (SF-295 CNS) of 924 nM and a TGI (SF-295 CNS) of 2720 nM. The GI50 (SF-539 CNS) was 977 nM, the TGI (SF-539 CNS) was 2560 nM and the GI50 (SK-MEL-2 melanoma) was 1600 nM. The TGI (SK-MEL-2 melanoma) was 3920 nM, the GI50 (SK-MEL-28 melanoma) was 530 nM and the TGI (SK-MEL-28 melanoma) was 1210 nM. The GI50 (SK-MEL-5 melanoma) was 1100 nM, the TGI (SK-MEL-5 melanoma) was 2470 nM and the GI50 (SK-OV-3 ovarian) was 1510 nM. The TGI (SK-OV-3 ovarian) was 2870 nM, the GI50 (SN12C renal) was 1000 nM and the TGI (SN12C renal) was 2530 nM. For the same compound, the GI50 (SNB-19 CNS) was 1240 nM, the TGI (SNB-19 CNS) was 2800 nM and the GI50 (SNB-75 CNS) was 1950 nM. The TGI (SNB-75 CNS) was 6850 nM, the GI50 (SR leukemia) was 351 nM and the TGI (SR leukemia) was over 23000 nM. It also gave a GI50 (SW-620 colon) of 899 nM, a TGI (SW-620 colon) of 2640 nM and a GI50 (T-47D breast) of 1430 nM. The TGI (T-47D breast) was 3130 nM, the GI50 (TK-10 renal) was 1090 nM and the TGI (TK-10 renal) was 2470 nM. The GI50 (U251 CNS) was 602 nM, the TGI (U251 CNS) was 1520 nM and the GI50 (UACC-257 melanoma) was 529 nM. The TGI (UACC-257 melanoma) was 1290 nM, the GI50 (UACC-62 melanoma) was 755 nM and the TGI (UACC-62 melanoma) was 2230 nM. It also gave a GI50 (UO-31 renal) of 664 nM and a TGI (UO-31 renal) of 1970 nM.
